Laboratory results taken from publication PMC8333053, “Synthesis and biological screening of new thiadiazolopyrimidine-based polycyclic compounds” (Scientific Reports, 2021).
≈ marks a conversion by molar mass, not a printed value.

Tests used:
DNA = experiment: Bleomycin-dependent DNA damage; type: biochemical; details: test sample 0.1 mg/mL, λ = 532 nm; mean of three replicates ± SD; ascorbic acid 0.24 mM
Text: Bleomycin-dependent DNA damage. The prepared polycyclic thiadiazolopyrimidine-based compounds were examined through the bleomycin-dependant DNA damage, and the results were compared to that of ascorbic acid as a positive control. The obtained data reflected the ability of these derivatives to protect the DNA from damage. The capability of compounds 16a–b and 17a–b to manifest the best protective effect against DNA damage was indicated by the corresponding absorbance values ranging from 0.031 to 0.053 (Table 4)[35],[36].
Bleomycin-dependent DNA damage experiment: To a mixture of 0.5 mg / mL of DNA, 5 mM magnesium chloride, 50 mM ferric chloride and 0.05 mg / mL bleomycin sulfate was prepared. The test sample was prepared at a concentration of 0.1 mg / mL and added to the mixture. After incubation of the mixture for one hour at 37 °C, 0.05 mL of EDTA (0.1 M) was added to terminate the reaction. In the next step, 0.5 mL of TBA (1% w / v) and 0.5 mL of HCl (25% v / v) were added for colour development and the mixture was heated for 10 minutes at 80 °C. The mixture was centrifuged and the absorbance expressed, the amount of damage to the DNA was measured at λ = 532 nm. L-Ascorbic acid (0.24 mM) was used as a positive control.

[1] = test system: Pseudomonas aeruginosa ATCC 29260; experiment: Antibacterial MIC, two-fold serial dilution; type: cell-based; details: ATCC29260, Gram −ve bacteria, LB broth, 37°C, 24 h, visual (no turbidity), read-out: MIC P. aeruginosa
Experimental: (§1) The antimicrobial activity of the synthesized thiadiazolopyrimidine compounds was studied toward diverse pathogenic strains, such as gram-positive bacteria (Staphylococcus aureus ATCC 29213 and Bacillus cereus UW85), gram-negative bacteria (Escherichia coli ATCC 12435 and Pseudomonas aeruginosa ATCC 29260), and fungi (Candida albicans and Aspergillus fumigatus 293). The assessment was performed through the two-fold dilution technique using Ampicillin (antibacterial) and Fluconazole (antifungal) as the reference drugs[28],[29]. The minimal inhibitory concentration (MICs, µg/mL) of the synthesized derivatives for prohibiting microbial growth was determined through the visual detection (no turbidity) technique.
(§2) The synthesized thiadiazolopyrimidine-based compounds were evaluated and adopted for antibacterial and antifungal effectiveness using the approved procedure[38],[39].
(§3) Minimal inhibitory concentrations (MICs) were determined by serial dilution technique using 96-multiwell microtiter plates. The investigated compounds were dissolved in DMSO 100% to prepare stock solutions of 5000 µg/mL. Two-fold serial dilutions of the dissolved compounds were performed in LB broth providing eight different concentrations (1250, 625, 312.5, 156, 78, 39, 19.5 µg/mL). Overnight cultures of microorganisms were diluted to 1 ×10^6 CFU/mL in LB broth, and 20 mL of the diluted cultures were added to the test solutions (50 mL) in the wells (one well per concentration per bacterial strain). The plates were incubated at 37°C for 24 h. MIC was detected visually as the least concentration inhibiting bacterial growth (no turbidity) and the activity of the tested compounds was estimated in comparison to ampicillin.

[2] = test system: Escherichia coli ATCC 12435; experiment: Antibacterial MIC, two-fold serial dilution; type: cell-based; details: ATCC12435, Gram −ve bacteria, LB broth, 37°C, 24 h, visual (no turbidity)
Experimental: as §1, §2, §3

Bacillus cereus UW85 = experiment: Antibacterial MIC, two-fold serial dilution; type: cell-based; details: Gram +ve bacteria, LB broth, 37°C, 24 h, visual (no turbidity), read-out: MIC B. cereus
Experimental: as §1, §2, §3

[3] = test system: Staphylococcus aureus ATCC 29213; experiment: Antibacterial MIC, two-fold serial dilution; type: cell-based; details: ATCC29213, Gram +ve bacteria, LB broth, 37°C, 24 h, visual (no turbidity), read-out: MIC S. aureus
Experimental: as §1, §2, §3

Candida albicans = experiment: Antifungal MIC, two-fold serial dilution; type: cell-based; details: Fungi, glucose minimal medium, 30°C, 48 h, visual (no turbidity)
Experimental: as §1, §2
(§4) Minimal inhibitory concentrations (MICs) were determined by serial dilution technique using 96-multiwell microtiter plates. The investigated compounds were dissolved in DMSO 100% to prepare stock solutions of 5000 µg/mL. Two-fold serial dilutions of the dissolved compounds were performed in glucose minimal medium providing eight different concentrations (1250, 625, 312.5, 156, 78, 39, 19.5 µg/mL). The microorganisms were diluted to 1 ×10^3 SFU/mL in glucose minimal medium, and 20 µL of the diluted culture was added to the test solutions (50 µL) in the wells (one well per concentration). The plates were incubated at 30°C for 48 h. MIC was detected visually as the least concentration inhibiting fungal growth (no turbidity) and the activity of the tested compounds was estimated in comparison to fluconazole.

[4] = test system: Aspergillus fumigatus 293; experiment: Antifungal MIC, two-fold serial dilution; type: cell-based; details: Fungi, glucose minimal medium, 30°C, 48 h, visual (no turbidity)
Experimental: as §1, §2, §4

[5] = test system: Chromobacterium violaceum (ATCC 12472); experiment: Antiquorum-sensing assay (violacein pigment inhibition); type: cell-based; details: Chromobacterium violaceum, ATCC12472, 48 h, read-out: Diameter of quorum-sensing inhibition C. violaceum
Text: The synthesized thiadiazolopyrimidine-based compounds were screened for their antiquorum-sensing (anti-QS) inhibition activity by the Chromobacterium violaceum (ATCC 12472) technique using catechin as the standard compound[28]–[30]. The QS technique of C. violaceum was remarked by the detection of violacein (violet pigment)[31],[32]. Meanwhile, the reactivity of the synthesized thiadiazolopyrimidine-containing derivatives as drugs depends on their efficiency to inhibit the liberation of violacein during the QS technique. The QS inhibition was determined by the following equation: QS inhibition (mm) = (r2 − r1), where r1 is the inhibition radius of the bacterial growth and r2 is the inhibition radius for growth as well as the release of the pigment.
The anti-QS inefficiency was evaluated using the previous technique mentioned in the literature.
The culture was prepared by growing Ch. violaceum ATCC 12472 in LB broth and incubated for 16–18 h in an orbital incubator running at 28°C and 150 rpm. The culture was then adjusted to 0.5 McFarland standard (ca. 1 × 10^6 CFU/mL). Ch. violaceum (50 µL) was inoculated into LB agar (50 mL), poured into plates, and solidified. Wells were made in LB agar medium using cork borer. The tested compounds were dissolved in DMSO 100% in Eppendorf tubes for final concentration of 5 mg/mL, and 50 µL of the test solution was applied into the wells. The positive control (catechin) was also added at the same concentration and volume to each plate. In addition, DMSO (control solvent) was added to each plate. […] Bacterial growth inhibition by the tested compounds was measured as radius (r1) in mm, while both growth and pigment inhibition was measured as radius (r2) in mm. The pigment inhibition (QS inhibition) was determined by subtracting bacterial growth inhibition (r1) from the total radius (r2); thus, QS inhibition = (r2 - r1) in mm.

| Structure (SMILES) | Absorbance (bleomycin-dependent DNA damage) (DNA) | MIC [1] | MIC [2] | MIC (Bacillus cereus UW85) | MIC [3] | MIC (Candida albicans) | MIC [4] | zone of inhibition at 5000 µg/mL [5] |
| --- | --- | --- | --- | --- | --- | --- | --- | --- |
| Cc1cc2nc3c(c(N)n2n1)c(=O)nc1scnn13 [Compound 13, 6-Amino-9-methyl-5H-pyrazolo[1′,5′:1,2]pyrimido[5,4-e][1,3,4]thiadiazolo[3,2-a]pyrimidin-5-one] | 0.128 ± 0.11 | > 1250 µg/mL | 1250 µg/mL (≈ 4.57 mM) | > 1250 µg/mL | 1250 µg/mL (≈ 4.57 mM) | 1250 µg/mL (≈ 4.57 mM) | > 1250 µg/mL | 5 mm |
| Cc1ccc(N=Nc2c(O)nn3c(N)c4c(=O)nc5scnn5c4nc23)cc1 [Compound 17a, 6-Amino-9-hydroxy-10-(4-methylphenylazo)-5H-pyrazolo[1′,5′:1,2]pyrimido[5,4-e][1,3,4]thiadiazolo[3,2-a]pyrimidin-5-one] | 0.053 ± 0.05 | 156 µg/mL (≈ 0.397 mM) | 156 µg/mL (≈ 0.397 mM) | 625 µg/mL (≈ 1.59 mM) | 625 µg/mL (≈ 1.59 mM) | > 1250 µg/mL | 1250 µg/mL (≈ 3.18 mM) | 11 mm |
| Nc1n[nH]c2c1c(=O)nc1scnn12 [Compound 4, 3-Aminopyrazolo[4,3-e][1,3,4]thiadiazolo[3,2-a]pyrimidin-4(1H)-one] | 0.165 ± 0.19 | > 1250 µg/mL | > 1250 µg/mL | > 1250 µg/mL | 1250 µg/mL (≈ 6 mM) | > 1250 µg/mL | > 1250 µg/mL | < 2 mm |
| Nc1nn(-c2ccccc2)c2c1c(=O)nc1scnn12 [Compound 5, 3-Amino-1-phenylpyrazolo[4,3-e][1,3,4]thiadiazolo[3,2-a]pyrimidin-4(1H)-one] | 0.146 ± 0.16 | 1250 µg/mL (≈ 4.4 mM) | 1250 µg/mL (≈ 4.4 mM) | 625 µg/mL (≈ 2.2 mM) | 625 µg/mL (≈ 2.2 mM) | 1250 µg/mL (≈ 4.4 mM) | > 1250 µg/mL | < 2 mm |
| Cc1ccc(N=Nc2c(N)nn3c(N)c4c(=O)nc5scnn5c4nc23)cc1 [Compound 16a, 6,9-Diamino-10-(4-methylphenylazo)-5H-pyrazolo[1′,5′:1,2]pyrimido[5,4-e][1,3,4]thiadiazolo[3,2-a]pyrimidin-5-one] | 0.039 ± 0.07 | 156 µg/mL (≈ 0.398 mM) | 78 µg/mL (≈ 0.199 mM) | > 1250 µg/mL | 1250 µg/mL (≈ 3.19 mM) | > 1250 µg/mL | > 1250 µg/mL | 9 mm |
| Nc1c2c(=O)nc3scnn3c2nc2nncn12 [Compound 12, 6-Amino-5H-[1,2,4]triazolo[4′,3′:1,2]pyrimido[5,4-e][1,3,4]thiadiazolo[3,2-a]pyrimidin-5-one] | 0.107 ± 0.08 | > 1250 µg/mL | > 1250 µg/mL | > 1250 µg/mL | 625 µg/mL (≈ 2.4 mM) | > 1250 µg/mL | > 1250 µg/mL | 3 mm |
